From patent US7037919B1, “Tetrahydroquinoline derivatives” (Kaken Pharmaceutical Co. Ltd., priority 1999, dated 2006)

Experiments:
orchiectomized rats = experiment: Inhibitory action on testosterone-induced prostate weight increase in orchiectomized rats (Test Example 5); type: in vivo, rat; details: TP 1 mg/kg s.c. alone, once daily for one week, orchiectomized SD rats, Mean ± SD
Method: Inhibitory Action on Testosterone-induced Prostate Weight Increase in Orchiectomized Rats
Testes were removed from 8-week-old male SD rats. From 5 days postoperation, 1 mg/kg of testosterone propionate (hereinafter referred to as TP) and 30 mg/kg of the compound of the present invention were simultaneously injected once daily for one consecutive week. The compound of the present invention was suspended in a 0.5% methyl cellulose solution, while TP was dissolved in cottonseed oil containing 5% ethanol. Each of the test compounds was subcutaneously administered. On the next day after final administration, the wet weight of the ventral prostate was measured to evaluate the AR antagonistic effect of the compound of the present invention on TP-induced prostate weight increase.

AR = experiment: Assignment of compounds as having AR agonistic or AR antagonistic action (description, no method given); details: compounds named as usable for category A diseases
[1] = tested on: orchiectomized (ORX) rats; experiment: Action of increasing prostate weight and bone mineral density in orchiectomized (ORX) rats (Test Example 4); type: in vivo, rat; details: 60 mg/kg s.c. once daily, 5 days weekly, 4 weeks, ORX SD rats, Mean ± SD; for Bone mineral density: right femur
Method: Action of Increasing Prostate Weight and Bone Mineral Density in Orchiectomized (ORX) Rats
Orchiectomy was performed in 12-week-old male SD rats. From the next day postoperation, the positive control compound dihydrotestosterone (DHT, 10 mg/kg) and the compound of the present invention (Example 60, 60 mg/kg), each dissolved in a 5% dimethyl sulfoxide-containing olive oil solution, were subcutaneously injected once daily, 5 days weekly, for 4 weeks. On the next day after final administration, the wet weight of the ventral prostate was measured to evaluate the AR agonistic effect of the compound of the present invention. On the next day following final administration, moreover, the right femur was removed, and fixed overnight in a 10% neutrally buffered formalin solution. Then, the bone mineral density at the site ranging from the diaphysis to the proximal end was measured by the method of double energy X-ray absorption using a bone mineral content-measuring machine (Aloka, DCS-600) to evaluate increasing action of bone mineral density of the compound of the present invention.

[2] = tested on: orchiectomized (ORX) rats; experiment: Action of increasing prostate weight in orchiectomized (ORX) rats (Test Example 3); type: in vivo, rat; details: 30 mg/kg s.c. once daily for 8 days, ORX SD rats, Mean ± SD
Method: Action of Increasing Prostate Weight in Rats After Orchiectomized (ORX) Rats
Orchiectomy was performed in 8-week-old male SD rats. From 5 days postoperation, the compound of the present invention (Example 60, 30 mg/kg), dissolved in a 5% dimethyl sulfoxide-containing olive oil solution, was subcutaneously injected once daily for 8 days. On the next day after final administration, the wet weight of the ventral prostate was measured to evaluate the AR agonistic effect of the compound of the present invention.

[3] = biological target: T1, Rat androgen receptors (rat AR) (Rattus norvegicus, UniProt P15207); experiment: Test for competitive binding to rat androgen receptors; details: 3H-testosterone, rat prostate AR fraction; hydroxyflutamide taken as 100
T1 construct: from tissue; host or cells: prostate of orchiectomized male SD rats (100,000 x g supernatant)
T1 sequence (P15207 1-902): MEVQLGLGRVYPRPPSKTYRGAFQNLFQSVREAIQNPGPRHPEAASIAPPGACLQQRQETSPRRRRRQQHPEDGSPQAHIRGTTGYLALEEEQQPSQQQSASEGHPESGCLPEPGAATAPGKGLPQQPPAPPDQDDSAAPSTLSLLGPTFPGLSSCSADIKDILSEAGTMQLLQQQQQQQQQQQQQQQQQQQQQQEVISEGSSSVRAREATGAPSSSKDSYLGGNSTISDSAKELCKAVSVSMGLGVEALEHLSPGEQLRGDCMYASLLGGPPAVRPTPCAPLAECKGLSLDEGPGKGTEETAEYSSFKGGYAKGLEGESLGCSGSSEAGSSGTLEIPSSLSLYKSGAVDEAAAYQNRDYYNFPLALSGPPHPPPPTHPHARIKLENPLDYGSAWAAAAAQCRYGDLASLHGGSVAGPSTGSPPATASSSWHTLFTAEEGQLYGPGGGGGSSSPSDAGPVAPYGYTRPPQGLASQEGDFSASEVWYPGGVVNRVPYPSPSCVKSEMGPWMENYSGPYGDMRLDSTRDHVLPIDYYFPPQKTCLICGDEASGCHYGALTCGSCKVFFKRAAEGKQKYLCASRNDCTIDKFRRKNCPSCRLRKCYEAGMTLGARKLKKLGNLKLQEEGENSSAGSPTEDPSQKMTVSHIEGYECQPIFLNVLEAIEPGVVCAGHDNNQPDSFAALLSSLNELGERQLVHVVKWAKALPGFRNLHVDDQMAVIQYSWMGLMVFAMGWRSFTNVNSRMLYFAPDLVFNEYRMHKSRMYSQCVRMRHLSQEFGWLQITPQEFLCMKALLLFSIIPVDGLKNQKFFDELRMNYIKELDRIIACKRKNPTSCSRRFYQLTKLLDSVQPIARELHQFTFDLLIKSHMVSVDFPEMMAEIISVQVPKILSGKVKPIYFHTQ
Method: Test for Competitive Binding to Rat Androgen Receptors (Rat AR)
Preparation of rat AR fraction: Prostates were harvested into ice-cooled ET buffer (10 mM Tris, 1 mM EDTA, 5 mM DTT, 10 mM sodium molybdate, pH 7.4) 3 days after orchiectomy in 11-week-old male SD rats. The prostate was finely cut, and ET buffer was added, whereafter the mixture was homogenized using a homogenizer. The homogenate was ultracentrifuged (100,000×g, 60 min, 4° C.), and the supernatant was used as a rat AR fraction (hereinafter referred to as ARF).
Binding test: ^3H-testosterone (hereinafter referred to as ^3H-T) was diluted with ET buffer. Dihydrotestosterone (DHT) was prepared so as to have a concentration (final concentration 1 μM) 400 times the maximum concentration of ^3H-T (2.5 nM). The ^3H-T solution was added to a 1.5 ml tube containing DHT, no DHT, or the test compound with a varying concentration. Further, 200 μg ARF was added to adjust the final volume to 100 μl. The mixture was incubated for 2 hours at 4° C., and then 300 μl of a 0.05% dextran T70-1.0% activated carbon solution was added. The mixture was further incubated for 15 minutes in ice to remove the free ^3H-T. After centrifugation (4° C., 2,500 rpm, 5 min), 275 μl of the supernatant was harvested into a liquid scintillation vial, and 2 ml of clear-sol was added. The mixture was stirred, allowed to stand, and measured for ^3H radioactivity with a liquid scintillation counter.
Calculation of the relative binding inhibition rate: The binding inhibition rate (%) of the compound according to the present invention was calculated from the following equation, and the 50% inhibition concentration (IC50) was calculated by the probit analysis of the concentration-binding inhibition curve.
The relative binding inhibition rate (RBA: Relative Binding Affinity) was obtained from the following equation (Endocrinology 138, 863-870, 1997): RBA=100×(IC50 of hydroxyflutamide)/(IC50 of the compound of the present invention) • RBA's of the compounds of the present invention, calculated as above, are shown in Table 10.

Compound | Prostate weight (orchiectomized rats) [mg/body weight 100 g] | AR agonistic action (AR) | Prostate weight [1] | Prostate weight ([1]; listed as Ex. 60) [mg/body weight 100 g] | Bone mineral density ([1]; 60 mg/kg) | Bone mineral density ([1]; listed as Ex. 60, 60 mg/kg) [mg/cm^2] | Weight of prostate [2] | RBA (Relative Binding Affinity = 100 x IC50 of hydroxyflutamide / IC50 of the compound) [3]
CCC(=O)O[C@H]1CC[C@H]2[C@@H]3CCC4=CC(=O)CC[C@]4(C)[C@H]3CC[C@]12C [TP, testosterone propionate] | 80.4 ± 13.7 | – | – | – | – | – | – | –
CCS(=O)(=O)NCC(C)(C)C1Nc2ccc([N+](=O)[O-])cc2C2C=CCC21 (centres unmarked) [Example 60] | – | AR agonistic action | significant increases in the prostate weights | 56 ± 13 | significantly increased the bone mineral density | 132 ± 7 | significantly increased the prostate weights | 814
